Assay results as given in patent US9700546B2, “Trivalent chromium compounds, compositions and methods of use” (INTERHEALTH NUTRACEUTICALS, INC., priority 2006, dated 2017).
“Also recorded” adds a separate entry of the source. Where two headings read alike, the source gives them in different places.

Assays:
[1] = system: Obese Zucker rats; experiment: In vivo assessment in obese Zucker rats: blood lipid profile (total cholesterol, triglycerides, HDL); settings: daily 400 μg Cr(III)/kg, 8 weeks, mean
[2] = system: Obese Zucker rats; settings: rat, in vivo
[3] = system: Obese Zucker rats; experiment: In vivo assessment in obese Zucker rats: key biological parameters (fasting glucose, HbA1c, vitamin C, GSH, RBC lipid peroxidation); settings: for RBC Lipid Peroxidase: malondialdehyde by thiobarbituric acid; for RBC Lipid Peroxidase / Fasting Glucose / GSH / HbA1c / Vitamin C / blood vitamin C levels, effect in words / fasting glucose, effect in words / glycosylated hemoglobin, effect in words / red blood cell lipid peroxidation, effect in words: obese Zucker rats, 8 weeks; for RBC Lipid Peroxidase / Fasting Glucose / GSH / HbA1c / Vitamin C: daily 400 μg Cr(III)/kg, mean; for Fasting Glucose: fasted overnight; for Vitamin C: plasma; for blood vitamin C levels, effect in words / fasting glucose, effect in words / glycosylated hemoglobin, effect in words / red blood cell lipid peroxidation, effect in words: effect of administration
[4] = system: Obese Zucker rats; experiment: In vivo assessment in obese Zucker rats: vascular inflammation markers (MCP-1, CRP, RBP-4, leptin, ICAM, adiponectin); settings: for Leptin / RBP-4 / Adiponectin / CRP / ICAM / MCP-1 / C-reactive protein, effect in words / adiponectin levels, effect in words / intracellular adhesion molecule, effect in words / monocyte chemotactic protein-1, effect in words: obese Zucker rats, 8 weeks; for Leptin / RBP-4 / Adiponectin / CRP / ICAM / MCP-1: daily 400 μg Cr(III)/kg, mean; for Adiponectin / CRP / ICAM / MCP-1: plasma, ELISA; for C-reactive protein, effect in words / adiponectin levels, effect in words / intracellular adhesion molecule, effect in words / monocyte chemotactic protein-1, effect in words: effect of administration
[5] = system: Obese Zucker rats; experiment: In vivo assessment in obese Zucker rats: other vascular inflammation markers (cAMP, TNFα, IL-6, OxyDNA); settings: for IL-6 / TNFα / cAMP / OxyDNA: obese Zucker rats, daily 400 μg Cr(III)/kg, 8 weeks, mean ± SE; for OxyDNA: oxidative DNA damage
[6] = system: Obese Zucker rats; experiment: In vivo assessment in obese Zucker rats: body weight and food intake; settings: for Food Intake 5 wks / Food Intake 7 wks: obese Zucker rats, daily 400 μg Cr(III)/kg, mean; for Food Intake 5 wks: at 5 weeks; for Food Intake 7 wks: at 7 weeks
[7] = system: Obese Zucker rats; experiment: In vivo assessment in obese Zucker rats: clinical chemistry (AP, BUN, CRT, AST, ALT)
[8] = men and women; cited from earlier work
[9] = compared to chromium nicotinate-glycine-cysteine-glutamic acid GTF complex of Toepfer et al.
[10] = listed as Chromium dinicocysteinate
[11] = listed as chromium dinicocysteinate
[12] = over chromium nicotinate, chromium picolinate and chromium histidinate

## N=C(N)NCCC[C@H](N)C(=O)O [Arg, Arginine, reference compound]
[1]
  HDL: 68.69 mg/dL
  Total Chol/HDL: 2.86 ratio
  Total Cholesterol: 173.96 mg/dL
  Triglyceride: 485.74 mg/dL
[2]
  ALT (Alanine Aminotransferease): 179.20 u/L
  AP (Alkaline phosphatase): 35.50 u/L
  AST (Aspartate Aminotransferase): 276.80 u/L
  BUN (Blood Urea Nitrogen): 21.00 mg/dL
  CRT (Creatinine): 0.40 mg/dL
  Total Bilirubin: 0.00 mg/dL
[3]
  RBC Lipid Peroxidase: 2.23 nmol/mL
  Fasting Glucose: 446.60 mg/dL
  GSH: 4.77 µmol/g
  HbA1c: 15.88%
  Vitamin C: 0.14 mg %
[4]
  Leptin: 431.72 pg/mL
  RBP-4: 47211.67 ng/mL
  Adiponectin: 9958.63 ng/mL
  CRP: 617.34 ng/mL
  ICAM: 17940.91 pg/mL
  MCP-1: 3878.85 pg/mL
[5]
  IL-6: 97.80 ± 0.93 pg/mL
  TNFα: 25.45 ± 0.93 pg/mL
  cAMP: 34.98 ± 0.92 pmol/mL
  OxyDNA: 62.90 ± 2.71 ng/mL
[6]
  Food Intake 5 wks: 37.73 g/day
  Food Intake 7 wks: 46.80 g/day

## N[C@@H](CS)C(=O)O [Cys, Cysteine, reference compound]
[1]
  HDL: 68.26 mg/dL
  Total Cholesterol: 183.58 mg/dL
  Triglyceride: 503.57 mg/dL
[2]
  ALT (Alanine Aminotransferease): 119.20 u/L
  AP (Alkaline phosphatase): 36.40 u/L
  AST (Aspartate Aminotransferase): 218.20 u/L
  BUN (Blood Urea Nitrogen): 18.50 mg/dL
  CRT (Creatinine): 0.42 mg/dL
  Total Bilirubin: 0.00 mg/dL
[3]
  RBC Lipid Peroxidase: 2.34 nmol/mL
  Fasting Glucose: 483.49 mg/dL
  GSH: 4.70 µmol/g
  HbA1c: 15.17%
  Vitamin C: 0.13 mg %
[4]
  Leptin: 477.65 pg/mL
  RBP-4: 50915.00 ng/mL
  Adiponectin: 11532.37 ng/mL
  CRP: 551.39 ng/mL
  ICAM: 18512.88 pg/mL
[5]
  IL-6: 95.33 ± 2.33 pg/mL
  TNFα: 24.28 ± 3.84 pg/mL
  cAMP: 32.94 ± 1.79 pmol/mL
  OxyDNA: 54.56 ± 5.69 ng/mL
[6]
  Food Intake 5 wks: 39.40 g/day
  Food Intake 7 wks: 39.87 g/day

## Chromium Dinicocysteinate [Cr(nic)2Cys]
[1]
  HDL: 66.46 mg/dL
  Total Cholesterol: 188.46 mg/dL
  Triglyceride: 550.89 mg/dL
[3]; [9]
  fasting glucose vs GTF complex, in words: decreased levels
  glycosylated hemoglobin vs GTF complex, in words: decreased levels
  red blood cell lipid peroxidation vs GTF complex, in words: decreased levels
  vitamin C vs GTF complex, in words: increased levels
[3]
  RBC Lipid Peroxidase: 1.81 nmol/mL
  Fasting Glucose: 446.24 mg/dL
  GSH: 4.74 µmol/g
  HbA1c: 14.76%
  Vitamin C: 0.18 mg %
[3]; [10]
  blood vitamin C levels, effect in words: elevation
  fasting glucose, effect in words: reductions
  glycosylated hemoglobin, effect in words: reductions
  red blood cell lipid peroxidation, effect in words: reductions
[3]; [11]
  blood vitamin C levels, effect in words: increased
  fasting glucose, effect in words: reducing
  glycosylated hemoglobin, effect in words: reducing
  red blood cell lipid peroxidation, effect in words: reducing; also recorded: reduced
[3]; [12]
  fasting glucose vs comparators, in words: decreased levels
  glycosylated hemoglobin vs comparators, in words: decreased levels
  vitamin C vs comparators, in words: increased levels
[3]; over chromium picolinate
  red blood cell lipid peroxidase vs comparator, in words: lower levels
[4]; [9]
  adiponectin vs GTF complex, in words: increased levels
[4]; [10]
  C-reactive protein, effect in words: reductions
  adiponectin levels, effect in words: elevation
  intracellular adhesion molecule, effect in words: reductions
  monocyte chemotactic protein-1, effect in words: reductions
[4]; [11]
  C-reactive protein, effect in words: reducing; also recorded: reductions
  adiponectin levels, effect in words: increases
  intracellular adhesion molecule, effect in words: reducing
  monocyte chemotactic protein-1, effect in words: reducing; also recorded: reductions
[4]
  Leptin: 407.32 pg/mL
  RBP-4: 49670.13 ng/mL
  Adiponectin: 12732.11 ng/mL
  CRP: 569.96 ng/mL
  ICAM: 17057.51 pg/mL
  MCP-1: 2829.17 pg/mL
[4]; [12]
  C-reactive protein vs comparators, in words: decreased levels
  ICAM vs comparators, in words: decreased levels
  adiponectin vs comparators, in words: increased levels
[4]; over chromium picolinate
  MCP-1 vs comparator, in words: lower levels
[7]; Zucker diabetic fatty rats, supplemented group
  alkaline phosphatase activities, effect in words: reduces
[7]; [9]
  ALT vs GTF complex, in words: decreased levels
  AST vs GTF complex, in words: decreased levels
[7]; effect of administration
  blood creatinine, effect in words: reducing
[7]; obese Zucker rats, mean ± SE
  ALT (Alanine Aminotransferease): 99.00 u/L
  AP (Alkaline phosphatase): 35.15 u/L
  Anion Gap: 29.62
  BUN (Blood Urea Nitrogen): 18.23 mg/dL
  CRT (Creatinine): 0.41 mg/dL
  Total Bilirubin: 0.05 mg/dL
[5]; [9]
  OxyDNA vs GTF complex, in words: decreased levels
  TNFα vs GTF complex, in words: decreased levels
[5]
  IL-6: 95.02 ± 1.99 pg/mL
  TNFα: 17.72 ± 3.35 pg/mL
  cAMP: 33.26 ± 2.61 pmol/mL
  OxyDNA: 46.92 ± 2.24 ng/mL
[5]; over chromium picolinate and chromium histidinate
  TNFα vs comparators, in words: lowered levels
[6]; [9]
  food intake vs GTF complex, in words: reduced
[6]; effect of administration
  food intake, effect in words: reduction
[6]
  Food Intake 5 wks: 34.43 g/day
  Food Intake 7 wks: 38.62 g/day

## Chromium Dinicotiante Glutamate [Cr(nic)2Glu]
[1]
  HDL: 65.57 mg/dL
  Total Chol/HDL: 2.94 ratio
  Total Cholesterol: 192.14 mg/dL
  Triglyceride: 666.50 mg/dL
[3]
  RBC Lipid Peroxidase: 2.30 nmol/mL
  Fasting Glucose: 490.43 mg/dL
  GSH: 5.05 µmol/g
  HbA1c: 14.69%
  Vitamin C: 0.14 mg %
[4]
  Leptin: 378.02 pg/mL
  RBP-4: 46720.00 ng/mL
  Adiponectin: 12446.67 ng/mL
  CRP: 519.94 ng/mL
  ICAM: 16980.59 pg/mL
  MCP-1: 3197.58 pg/mL
[7]; obese Zucker rats, mean ± SE
  BUN/CRT Ratio: 44.71
[5]
  IL-6: 89.50 ± 3.22 pg/mL
  cAMP: 29.97 ± 1.43 pmol/mL
  OxyDNA: 43.62 ± 2.69 ng/mL
[6]
  Food Intake 5 wks: 37.51 g/day
  Food Intake 7 wks: 39.92 g/day

## chromium polynicotinate
[8]
  chromium absorbed (average): 0.2 µg
